The text below walks through data of PMC3844181, “Studies of the Interaction between Isoimperatorin and Human Serum Albumin by Multispectroscopic Method: Identification of Possible Binding Site of the Compound Using Esterase Activity of the Protein” (The Scientific World Journal, 2013).

The target of assay [1] is T1, Human serum albumin (HSA) (Homo sapiens, UniProt P02768).
T1 construct: gene ALB; mature serum albumin, 585 residues, monomer
Briefly: ANS fluorescence titration, Scatchard plot. The format is binding. An excerpt:
ANS fluorescence titration, Scatchard plot on Human serum albumin (HSA)

Assay [2] addresses T1, Human serum albumin (HSA). Briefly: 4-nitrophenyl acetate esterase assay. The format is biochemical. As to conditions: 15 μM HSA, 250 μM pNPA, 250 μM compound, site I.
Assay [3] concerns the target T1, Human serum albumin (HSA). Briefly: intrinsic Trp fluorescence quenching, modified Stern-Volmer plot. The class given is binding. As to conditions: 298 K, 50 mM phosphate pH 7.5, 3 μM HSA, excitation 295 nm; n = 0.862; site I; double-log. An excerpt: intrinsic Trp fluorescence quenching, modified Stern-Volmer plot on Human serum albumin (HSA)

T1 sequence (P02768 25-609): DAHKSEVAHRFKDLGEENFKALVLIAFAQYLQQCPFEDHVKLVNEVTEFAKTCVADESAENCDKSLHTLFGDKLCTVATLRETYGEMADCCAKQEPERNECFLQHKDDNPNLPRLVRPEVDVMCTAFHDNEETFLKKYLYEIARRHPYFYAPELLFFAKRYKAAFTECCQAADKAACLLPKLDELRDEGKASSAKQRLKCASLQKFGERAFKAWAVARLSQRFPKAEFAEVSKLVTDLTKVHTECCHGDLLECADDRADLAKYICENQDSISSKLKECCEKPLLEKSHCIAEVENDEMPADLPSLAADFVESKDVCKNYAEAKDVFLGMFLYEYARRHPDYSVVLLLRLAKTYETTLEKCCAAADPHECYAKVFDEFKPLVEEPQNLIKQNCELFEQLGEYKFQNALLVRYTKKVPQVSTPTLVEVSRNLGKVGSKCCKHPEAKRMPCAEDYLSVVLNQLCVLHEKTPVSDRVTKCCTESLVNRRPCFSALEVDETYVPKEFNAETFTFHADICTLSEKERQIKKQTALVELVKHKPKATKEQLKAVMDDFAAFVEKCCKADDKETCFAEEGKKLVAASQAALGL

In turn, `O=S(=O)(O)c1cccc2cccc(Nc3ccccc3)c12` [ANS] had an equilibrium dissociation constant (Kd) in assay [1] of 900 ± 50 nM.

As for `CC(=O)Oc1ccccc1C(=O)O` [aspirin], the “inhibition of esterase activity” value in assay [2] is “isoimperatorin, aspirin, warfarin, indomethacin, and osthole binding sites on the HSA molecule are the same”.

On to `CC(C)=CCOc1c2ccoc2cc2oc(=O)ccc12` [isoimperatorin, 4-[(3-methyl-2-butenyl)oxy]-7H-furo [3,2-g] [1] benzopyran-7-one], for which, in assay [2] (competitive), the “inhibition of esterase activity” value is “warfarin and indomethacin (as site I marker) and isoimperatorin inhibited competitively the HSA-catalyzed hydrolysis”. In addition, the “10^-5 × K b (M^-1)” value in assay [3] is “(11.02 ± 0.10) × 10^5 M^-1”.

With `COc1ccc2ccc(=O)oc2c1CC=C(C)C` [osthole], the “inhibition of esterase activity” value in assay [2] was “isoimperatorin, aspirin, warfarin, indomethacin, and osthole binding sites on the HSA molecule are the same”.

In general, Kd refers to a measure of binding affinity in units of concentration. The low end stands for tighter binding, the high end for weaker binding.
